Data: patent publication US20060189683A1, “Parenteral formulation of mycophenolic acid, a salt or prodrug thereof” (priority 2003, published 2006)

Assay: Plasma levels of MPA after intravenous continuous infusion in stable renal transplant patients
Assay type: in vivo, human
Conditions: 12 stable renal transplant patients
Method: 12 ml of the solution of example 2 is given to 12 stable renal transplant patients as an intravenous continuous infusion into an arm vein over 30 min with a constant infusion rate of 0.4 ml/min.
Blood samples are taken for 36 h after dosing at the following time points: 0, 10 min, 20 min, 30 min, 45 min, 1.0 h, 1.5 h, 2.0 h, 4.0 h, 8.0 h, 12.0 h, 24.0 h, 36.0 h from the onset of infusion.

interpatient variability for AUC0-t (12 ml of solution of example 2, i.v. infusion over 30 min): less than 25% | half-life (human, iv, 12 ml of the solution of example 2, 12 ml of solution of example 2, i.v. infusion over 30 min, read-out: Mean t1/2 (converted)): 9.68 h | AUC(0-t) (human, iv, 12 ml of the solution of example 2, 12 ml of solution of example 2, i.v. infusion over 30 min, sampling for 36 h, read-out: Mean MPA AUC0-t): 42100 ng·h/mL
Structure (SMILES): COc1c(C)c2c(c(O)c1C/C=C(\C)CCC(=O)O)C(=O)OC2 [MPA, Mycophenolic acid]
